Here are results for 52 molecules from PubChem BioAssay AID1996.

Molecules are shown by their SMILES. ≈ marks a conversion by molar mass, not a printed value.

For the data set the following is noted: buffer; pH 7.4; 200.0 µM.
With `Cc1ncn2cc(-c3ccc(Cl)cc3Cl)[nH]c(=O)c12`, the kinetic solubility (commonly solubility judged after dilution from a stock solution rather than from solid) came out at 2.8 µg/mL (≈ 9.52 µM).
To `O=C(c1ccc2[nH]c(=O)c(=O)[nH]c2c1)N1CCc2ccccc2C1` belongs over 48.2 µg/mL; to `COc1ccc(Nc2nc(C)cc(C)n2)cc1Cl.Cl`, over 45 µg/mL; to `N/C(CS(=O)(=O)c1ccc(F)cc1)=N\O`, over 34.8 µg/mL.
`Cc1c(C(=O)N2CCCCC2)oc2ccccc12` showed a kinetic solubility of 32 µg/mL (≈ 132 µM).
In turn, `COc1ccc(CC(=O)OCC(=O)Nc2cc(Cl)ccc2C)cc1` registered a solubility (kinetic) of 7 µg/mL (≈ 20.1 µM).
To `CCOC(=O)c1csc(NC(C)=O)n1` belongs over 32.1 µg/mL.
Molecule `O=C(CNC(=O)c1ccc(Br)o1)NCCc1ccc(F)cc1` came in with a kinetic solubility of 39.8 µg/mL (≈ 108 µM).
To `CCOC(=O)C1CCN(C(=O)Nc2cccc(OC)c2)CC1` belongs over 46 µg/mL.
To `O=c1c2ccccc2nc2oc3ccccc3n12` belongs 1.1 µg/mL (≈ 4.66 µM).
The value for `O=C(Cc1ccccc1)c1c[nH]c(C(=O)NCc2ccncc2)c1` was 6.1 µg/mL (≈ 19.1 µM); that for `Cn1nccc1NS(=O)(=O)c1ccc(NC(=O)C(F)(F)F)cc1` was over 52.2 µg/mL; that for `O=C1c2ccccc2C(=O)c2[nH]c(=O)[nH]c21` was over 32.1 µg/mL.
On to `CCC1(C)SC(N)=NN1C(C)=O` (configuration not stated), for which the kinetic solubility is over 28.1 µg/mL.
The value for `NC(=O)c1ccc(NC(=O)COC(=O)CCN2C(=O)c3ccccc3C2=O)cc1` was over 59.3 µg/mL; that for `Cc1cc(C(=O)NC2CCCC(C)C2C)c2ccccc2n1` (configuration not stated) was 18.9 µg/mL (≈ 63.8 µM); that for `CC(=O)CCSc1ncnc2sc(-c3ccccc3)cc12` was 0.6 µg/mL (≈ 1.91 µM).
The value for `C=CCOC(=O)C1=C(C)NC(C)=C(C(=O)OCC=C)C1c1ccco1` was 4.5 µg/mL (≈ 13.1 µM); that for `C/C=C/C=C(/NC(=O)c1ccccc1)C(=O)Nc1ccccc1` was 2.3 µg/mL (≈ 7.51 µM); that for `CCC(=O)c1ccc(OCC(=O)N2CCCC2)c(OC)c1` was over 43.7 µg/mL.
`Cc1nc(=O)c(-c2ccccc2)c(C)n1-c1ccc(Br)cc1` came in with a solubility (kinetic) of over 53.3 µg/mL.
To `COc1ccc(CCNC2CCc3ccccc3C2)cc1` (configuration not stated) belongs 28.3 µg/mL (≈ 101 µM); to `COc1ccc(NC(=S)NC(=O)c2ccccc2)cn1`, 35.8 µg/mL (≈ 125 µM); to `CC(C)Cc1csc(NC(=O)c2ccc(Br)cc2)c1C(=O)O`, 53.6 µg/mL (≈ 140 µM).
Consider `COc1ccc2cc(S(=O)(=O)Nc3ccccn3)ccc2c1`, for which the solubility (kinetic) worked out at 10 µg/mL (≈ 31.8 µM).
`NC(=S)COc1ccccc1`: the solubility (kinetic) turned out to be 18.3 µg/mL (≈ 109 µM).
For the molecule `COc1ccc(CNC(=O)c2cc3ccccc3oc2=O)cc1`, the solubility (kinetic) is under 0.7 µg/mL.
The molecule `NC(=O)Cn1cnc2nc3n(c2c1=O)CCC3` gave a kinetic solubility of over 35 µg/mL.
Take `COCC(C)Nc1nc(C)c(C(C)=O)s1` (configuration not stated): the kinetic solubility was over 34.2 µg/mL.
To `CC1CCCC(NC(=O)COC(=O)c2ccccc2[N+](=O)[O-])C1C` (configuration not stated) belongs 48.6 µg/mL (≈ 145 µM); to `CC(C)NCC(O)COc1cccc2ccccc12.Cl` (configuration not stated), over 44.4 µg/mL.
The value for `C=CC[n+]1c(C)csc1Nc1cccc(Br)c1.[Br-]` was 3.3 µg/mL; that for `Cc1cccc(Oc2ccc(NC(=O)c3ccccc3C(=O)O)cc2)c1` was over 52.1 µg/mL.
To `Oc1ccc(Br)cc1CNc1cccc2cccnc12` belongs 1 µg/mL (≈ 3.04 µM); to `Cc1cc(C)nc(SCc2cn3c(C)cccc3n2)n1`, 37.9 µg/mL (≈ 133 µM).
`CC(C)Cn1c(N)c(C(=O)COC(=O)c2cccn2C)c(=O)n(C)c1=O` displayed a solubility (kinetic) of over 54.4 µg/mL.
To `COc1ccc(Cl)cc1N=Cc1c(O)c2ccccc2oc1=O` belongs under 0.7 µg/mL.
In turn, `COc1ccc(Cl)cc1NC(=O)COC(=O)C1CC1` gave a kinetic solubility of 34.4 µg/mL (≈ 121 µM).
To `CN1C(=O)NC(c2ccc(O)cc2)C2=C1CN(c1ccc(O)cc1)C2=O` (configuration not stated) belongs over 52.7 µg/mL; to `Cc1ccc(S(=O)(=O)N2CCN(C(=O)N(C)C)CC2)cc1`, over 46.7 µg/mL.
`O=C(Nc1ccccc1)Nc1ccc(Cl)nc1Cl` displayed a solubility (kinetic) of 3.9 µg/mL (≈ 13.8 µM).
To `Cc1ccc(NC(=O)C2Oc3ccccc3OC2C)cc1` (configuration not stated) belongs 28 µg/mL (≈ 98.8 µM); to `O=C(COC(=O)c1cccs1)NC1CCCC1`, 36.5 µg/mL (≈ 144 µM).
For the molecule `O=C(CC1CCCCC1)NCc1ccc(Cl)cc1`, the solubility (kinetic) worked out at 2.4 µg/mL (≈ 9.03 µM).
`CC(NCc1ccccc1C(F)(F)F)C(O)c1ccccc1.Cl` (configuration not stated) had a kinetic solubility of over 51.9 µg/mL.
The value for `Cc1ccc(N2C(=O)C3CCCN3C2=S)cc1Cl` (configuration not stated) was over 42.1 µg/mL; that for `Cc1cc(Oc2ccc(N)cn2)cc(C)c1Cl` was 27.6 µg/mL (≈ 111 µM).
To `Cc1ccc2oc(=O)n(CCCOc3ccccc3C)c2c1` belongs 0.9 µg/mL (≈ 3.03 µM); to `CC(CN1CCCC1)OC(=O)c1ccccc1Cl.Cl` (configuration not stated), over 45.6 µg/mL.
To `Cc1ccc(N2CCN(C(=S)Nc3ccccc3)CC2)cc1` belongs 1 µg/mL (≈ 3.21 µM); to `O=C1NC(=Nc2ccccc2Cl)SC1(CO)CO`, 42.3 µg/mL (≈ 148 µM); to `Cc1cc(OCC(=O)Nc2ccncc2)cc(C)c1Cl`, 2.9 µg/mL (≈ 9.97 µM).
